Results taken from patent US20250115628A1, “FLUORINATED FLUOROPHORES” (HOWARD HUGHES MEDICAL INSTITUTE, priority 2023, published 2025).
Several values for one entry are separate records, joined by “and”; a condition that tells them apart may be missing. Equal values may be shown once. Read-outs that look alike come from different tables or passages of the source.

Assays:
[1] = General UV-vis and fluorescence spectroscopy; format: physicochemical
Procedure: Spectroscopy was performed using 1^−cm path length, 3.5^−mL quartz cuvettes or 1^−cm path length, 1.4^−mL semi-micro quartz cuvettes from Starna Cells. All measurements were taken at ambient temperature (22±2° C.). Absorption spectra were recorded on a Cary Model 100 spectrometer (Agilent), and fluorescence spectra were recorded on a Cary Eclipse fluorometer (Varian). The spectra, maximum absorption wavelength (labs), extinction coefficient at λabs (8), and maximum emission wavelength (em) were measured in 10 mM HEPES, pH 7.3 buffer (rhodamines and Malachite Green derivative 49) or 0.1 M NaOH (fluoresceins); the reported values for e are averages (n=3). Normalized spectra are shown for clarity.

[2] = Quantum yield determination; format: physicochemical
Procedure: All reported absolute fluorescence quantum yield values (Φf) were measured using a Quantaurus-QY spectrometer (model C11374, Hamamatsu). This instrument uses an integrating sphere to determine photons absorbed and emitted by a sample. Measurements were carried out using dilute samples (A<0.1), and self-absorption corrections were performed using the instrument software.^81

[3] = pKa determination (absorbance vs. pH); conditions: for ηH: Hill coefficient from pH titration data; for pKa: aqueous buffer solutions
Procedure: For pH 2.0-4.0, the McIlvaine citrate/phosphate buffer system was used. For other pH ranges dye absorbance was measured in buffers containing 150 mM NaCl and 10 mM buffer using the following systems: citrate (pH 4.0-6.0), phosphate (pH 5.8-8.0); tris (pH 7.8-9.0); carbonate (pH 9.2-10.0). Buffer solutions containing 5 M of each fluorophore were prepared (36 samples in duplicate from pH 4.0-10.0 for 51, 53, and 60; 48 samples in duplicate from pH 2.0-10.0 for 76 and 77). Absorbance values were recorded on a Cary Model 100 spectrometer and plotted using GraphPad Prism software. The points were fitted to a sigmoidal dose response curve with a variable slope to determine the Hill coefficient (ηH).

[4] = rhodamine derivatives; 10 mM HEPES, pH 7.3; data from the inventors' published work; cited from earlier work
[5] = rhodamine derivatives; 10 mM HEPES, pH 7.3; data from the inventors' published work; cited from earlier work; remark: listed apart in the source
[6] = rhodamine derivatives; 1:1 dioxane:H2O; data from the inventors' published work; cited from earlier work
[7] = Determination of KL-Z (lactone-zwitterion equilibrium constant); format: physicochemical; design: key: KL-Z = (εdw/εmax)/(1−εdw/εmax); εdw measured in 1:1 dioxane/water; conditions: 1:1 dioxane:H2O
Procedure: KL-Z was calculated using the following equation:^16, 18 KL-Z=(εdw/εmax)/(1−εdw/εmax). εdw is the extinction coefficient of the dyes in a 1:1 (v/v) dioxane/water solvent mixture; this dioxane/water mixture was chosen to give the maximum spread of KL-Z values across all classes of rhodamines.^18 εmax refers to the maximal extinction coefficients measured in different solvent mixtures empirically determined depending on dye type: 0.1% v/v trifluoroacetic acid in ethanol for 18, 20, 29, 34, 36, 70-72, 81-83, 93-95, 99-102, and 104; 0.1% v/v trifluoroacetic acid in 2,2,2^−trifluoroethanol for all other rhodamine variants. A accurate determination of low KL-Z values is complicated by the relatively poor sensitivity of absorbance measurements.

[8] = fluorescein derivatives, 0.1 N NaOH
[9] = rhodamine derivatives, 10 mM HEPES, pH 7.3
[10] = quinolinyl rhodamines, 10 mM HEPES, pH 7.3

| Compound | ε [1, 8] | λabs [1, 8] [nm] | λem [1, 8] [nm] | Φf [2, 8] | ηH [3] | ε [4] | λabs [4] [nm] | λem [4] [nm] | Φf [5] | KL-Z [6] | other results |
| --- | --- | --- | --- | --- | --- | --- | --- | --- | --- | --- | --- |
| O=C1OC2(c3cc(F)c(O)cc3Oc3cc(O)c(F)cc32)c2ccccc21 [compound 76, reference compound] | 82,400 M^−1cm^−1 | 490 | 514 | 0.97 | 0.98 | – | – | – | – | – | – |
| C[Si]1(C)c2cc(N3CCC3)ccc2C2(OC(=O)c3ccccc32)c2ccc(N3CCC3)cc21 [compound 1, JF646] | – | – | – | – | – | 5,600 M^−1cm^−1 | 646 | 664 | 0.54 | – | – |
| JF669 [compound 2] | – | – | – | – | – | 112,000 M^−1cm^−1 | 669 | 662 | 0.37 | 0.262 | – |
| O=C1OC2(c3ccc(O)cc3Oc3cc(O)ccc32)c2ccccc21 [compound 73, reference compound] | 90,000 M^−1cm^−1 | 490 | 514 | 0.92 | 0.97 | – | – | – | – | – | – |
| N=c1ccc2c(-c3ccccc3C(=O)O)c3ccc(N)cc3oc-2c1 [compound 81] | – | – | – | – | – | 75,000 M^−1cm^−1 | 487 | 520 | 0.88 | 2.53 | – |
| [2H]C1([2H])N(c2ccc3c(-c4ccccc4C(=O)[O-])c4ccc(=[N+]5C([2H])([2H])C([2H])([2H])C([2H])([2H])C5([2H])[2H])cc-4oc3c2)C([2H])([2H])C([2H])([2H])C1([2H])[2H] [compound 87] | – | – | – | – | – | – | 554 | 576 | 0.80 | 4.96 | – |
| CC1(C)c2cc(N3CCC3)ccc2C2(OC(=O)c3ccccc32)c2ccc(N3CCC3)cc21 [compound 86, JF608] | – | – | – | – | – | 99,000 M^−1cm^−1 | 608 | 631 | 0.67 | 0.0911 | – |
| [2H]C1([2H])N(c2ccc3c(-c4c(F)c(F)c(F)c(F)c4C(=O)[O-])c4ccc(=[N+]5C([2H])([2H])C([2H])([2H])C([2H])([2H])C5([2H])[2H])cc-4oc3c2)C([2H])([2H])C([2H])([2H])C1([2H])[2H] [compound 8, JFX576] | – | – | – | – | – | – | – | – | – | – | ε [1, 9]: 124,000 M^−1cm^−1; λabs [1, 9]: 576 nm; λem [1, 9]: 597 nm; Φf [2, 9]: 0.71; KL-Z ([7]; rhodamine derivatives): 7.50 |
| [2H]C1([2H])N(c2ccc3c(c2)[Si](C)(C)C2=CC(=[N+]4C([2H])([2H])C([2H])([2H])C([2H])([2H])C4([2H])[2H])C=CC2=C3c2ccccc2C(=O)[O-])C([2H])([2H])C([2H])([2H])C1([2H])[2H] [compound 89, JFX650] | – | – | – | – | – | 17,600 M^−1cm^−1 | 650 | 667 | 0.53 | – | – |
| [2H]C1([2H])N(c2ccc3c(c2)[Si](C)(C)C2=CC(=[N+]4C([2H])([2H])C([2H])([2H])C([2H])([2H])C4([2H])[2H])C=CC2=C3c2c(F)c(F)c(F)c(F)c2C(=O)[O-])C([2H])([2H])C([2H])([2H])C1([2H])[2H] [compound 25, JFX673] | – | – | – | – | – | – | – | – | – | – | ε [1, 9]: 156,000 M^−1cm^−1; λabs [1, 9]: 673 nm; λem [1, 9]: 690 nm; Φf [2, 9]: 0.42; KL-Z ([7]; rhodamine derivatives): 1.56 |
| CC1(C)C2=CC(=O)C(F)=CC2=C(c2c(F)c(F)c(F)c(F)c2C(=O)O)c2cc(F)c(O)cc21 [compound 53, 2′,4,5,6,7,7′-Hexafluorocarbofluorescein] | 91,100 M^−1cm^−1 | 576 | 599 | 0.29 | 1.00 | – | – | – | – | – | pKa [3]: 5.47 |
| C[Si]1(C)C2=CC(=N)C=CC2=C(c2ccccc2C(=O)O)c2ccc(N)cc21 [compound 83] | – | – | – | – | – | 2,200 M^−1cm^−1 | 587 | 609 | 0.53 | – | – |
| CN(c1ccccc1)c1ccc2c(-c3ccccc3C(=O)[O-])c3ccc(=[N+](C)c4ccccc4)cc-3oc2c1 [compound 90] | – | – | – | – | – | 16,000 M^−1cm^−1 | 549 | – | – | 0.296 | – |
| [2H]C1([2H])N(c2ccc3c(c2)C(C)(C)C2=CC(=[N+]4C([2H])([2H])C([2H])([2H])C([2H])([2H])C4([2H])[2H])C=CC2=C3c2ccccc2C(=O)[O-])C([2H])([2H])C([2H])([2H])C1([2H])[2H] [compound 88] | – | – | – | – | – | 130,000 M^−1cm^−1 | 612 | 633 | 0.70 | 0.880 | – |
| O=C1OC2(c3cc(F)c(O)cc3Oc3cc(O)c(F)cc32)c2c(F)c(F)c(F)c(F)c21 [compound 77, reference compound] | 81,200 M^−1cm^−1 | 508 | 527 | 0.18 | 1.00 | – | – | – | – | – | – |
| N=c1ccc2c(-c3c(F)c(F)c(F)c(F)c3C(=O)O)c3ccc(N)cc3oc-2c1 [compound 70, 4,5,6,7^−Tetrafluoro-rhodamine 110] | – | – | – | – | – | – | – | – | – | – | ε [1, 9]: 84,500 M^−1cm^−1; λabs [1, 9]: 516 nm; λem [1, 9]: 536 nm; Φf [2, 9]: 0.64; KL-Z ([7]; rhodamine derivatives): 9.81 |
| CC1(C)C2=CC(=N)C=CC2=C(c2ccccc2C(=O)O)c2ccc(N)cc21 [compound 82] | – | – | – | – | – | 65,000 M^−1cm^−1 | 552 | 577 | 0.64 | 0.0127 | – |
| CCC1=CC2=C(c3ccccc3C(=O)O)c3cc4c(cc3C(C)(C)C2=CC1=NC)NCCC4 [compound 94, Carbo-Q-rhodamine] | – | – | – | – | – | – | – | – | – | – | ε [1, 9]: 101,000 M^−1cm^−1; λabs [1, 9]: 598 nm; λem [1, 9]: 620 nm; Φf [2, 9]: 0.51; KL-Z ([7]; rhodamine derivatives): 1.51 |
| CCC1=CC2=C(c3c(F)c(F)c(F)c(F)c3C(=O)O)c3cc4c(cc3[Si](C)(C)C2=CC1=NC)NCCC4 [compound 29, 4,5,6,7^−Tetrafluoro-Si-Q-rhodamine] | – | – | – | – | – | – | – | – | – | – | ε [1, 9]: 124,000 M^−1cm^−1; λabs [1, 9]: 659 nm and 689 nm; λem [1, 9]: 675 nm; Φf [2, 9]: 0.25; KL-Z ([7]; rhodamine derivatives): 2.39 |
| O=C1OC2(c3ccc(O)cc3Oc3cc(O)ccc32)c2c(F)c(F)c(F)c(F)c21 [compound 60, 4,5,6,7^−tetrafluorofluorescein, reference compound] | 85,600 M^−1cm^−1 | 508 | 527 | 0.85 | 0.92 | – | – | – | – | – | – |
| CC1(C)C2=CC(=O)C=CC2=C(c2c(F)c(F)c(F)c(F)c2C(=O)O)c2ccc(O)cc21 [compound 51, 4,5,6,7^−Tetrafluoro-carbofluorescein] | 96,700 M^−1cm^−1 | 564 | 585 | 0.54 | 1.02 | – | – | – | – | – | pKa [3]: 6.86 |
| CC1=CC(C)(C)N(C)c2cc3c(cc21)C(c1c(F)c(F)c(F)c(F)c1C(=O)[O-])=c1cc2c(cc1O3)=[N+](C)C(C)(C)C=C2C [compound 11, 2,3,4,5^−Tetrafluoro-6^−(1,2,2,4,8,10,10,11^−octamethyl-1,2,10,11-tetrahydropyrano[3,2^−g:5,6^−g]diquinolin-13^−ium-6^−yl)benzoate] | – | – | – | – | – | – | – | – | – | – | ε [1, 10]: 121,000 M^−1cm^−1; λabs [1, 10]: 610 nm; λem [1, 10]: 630 nm; Φf [2, 10]: 0.68; KL-Z ([7]; quinolinyl rhodamines): 7.88 |
| C[Si]1(C)C2=CC(=O)C=CC2=C(c2c(F)c(F)c(F)c(F)c2C(=O)O)c2ccc(O)cc21 [compound 55, 4,5,6,7^−Tetrafluoro-Si-fluorescein] | 84,100 M^−1cm^−1 | 598 | 614 | 0.50 | 1.23 | – | – | – | – | – | pKa [3]: 7.08 |
